Read-outs that look alike come from different tables or passages of the source.
Assays:
PKA = target: T1, PKA (Mus musculus, UniProt P05132); experiment: PKA inhibition assay (ADP-Glo, CREBtide, 100 μM ATP); format: biochemical
T1 construct: His tag (inferred from pET15b vector and Ni-NTA column) (N); host or cells: E. coli Rosetta(DE3)pLysS

GRK2 [1] = target: T2, GRK2 (Homo sapiens, UniProt P25098, S670A); experiment: DSF retest (confirmation), GRK2; format: binding; conditions: for GRK2 Tm: 0.2 mg mL^–1 kinase; for GRK2 ΔTm: relative to intrinsic melting point of the kinase
T2 construct: made in house
T2 sequence (P25098 1-689 S670A): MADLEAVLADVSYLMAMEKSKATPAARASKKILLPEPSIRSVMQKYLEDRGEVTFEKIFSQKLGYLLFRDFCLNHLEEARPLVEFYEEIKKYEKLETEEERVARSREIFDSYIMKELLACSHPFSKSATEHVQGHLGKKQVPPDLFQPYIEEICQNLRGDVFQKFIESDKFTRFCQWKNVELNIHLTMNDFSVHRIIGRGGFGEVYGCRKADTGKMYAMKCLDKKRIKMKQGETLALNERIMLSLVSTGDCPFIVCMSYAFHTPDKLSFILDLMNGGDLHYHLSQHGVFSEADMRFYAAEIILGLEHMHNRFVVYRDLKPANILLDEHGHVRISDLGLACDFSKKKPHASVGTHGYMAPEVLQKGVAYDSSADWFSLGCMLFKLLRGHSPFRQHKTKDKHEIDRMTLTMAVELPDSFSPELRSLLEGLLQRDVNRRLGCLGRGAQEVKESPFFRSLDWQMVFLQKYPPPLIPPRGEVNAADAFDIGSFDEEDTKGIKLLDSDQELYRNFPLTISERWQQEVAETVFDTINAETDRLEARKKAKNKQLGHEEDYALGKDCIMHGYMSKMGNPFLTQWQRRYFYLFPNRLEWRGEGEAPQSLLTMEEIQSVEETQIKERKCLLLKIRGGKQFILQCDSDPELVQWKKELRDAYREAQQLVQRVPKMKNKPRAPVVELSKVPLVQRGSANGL

GRK5 [2] = target: T3, GRK5 (Bos taurus, UniProt P43249); experiment: DSF retest (confirmation), GRK5; format: binding, bovine; conditions: for GRK5 Tm: 0.2 mg mL^–1 kinase; for GRK5 ΔTm: relative to intrinsic melting point of the kinase
T3 construct: when using full-length kinases as the receptor[37] instead of isolated kinase domains; made in house
T3 sequence (P43249 whole entry, the tested form may be a part): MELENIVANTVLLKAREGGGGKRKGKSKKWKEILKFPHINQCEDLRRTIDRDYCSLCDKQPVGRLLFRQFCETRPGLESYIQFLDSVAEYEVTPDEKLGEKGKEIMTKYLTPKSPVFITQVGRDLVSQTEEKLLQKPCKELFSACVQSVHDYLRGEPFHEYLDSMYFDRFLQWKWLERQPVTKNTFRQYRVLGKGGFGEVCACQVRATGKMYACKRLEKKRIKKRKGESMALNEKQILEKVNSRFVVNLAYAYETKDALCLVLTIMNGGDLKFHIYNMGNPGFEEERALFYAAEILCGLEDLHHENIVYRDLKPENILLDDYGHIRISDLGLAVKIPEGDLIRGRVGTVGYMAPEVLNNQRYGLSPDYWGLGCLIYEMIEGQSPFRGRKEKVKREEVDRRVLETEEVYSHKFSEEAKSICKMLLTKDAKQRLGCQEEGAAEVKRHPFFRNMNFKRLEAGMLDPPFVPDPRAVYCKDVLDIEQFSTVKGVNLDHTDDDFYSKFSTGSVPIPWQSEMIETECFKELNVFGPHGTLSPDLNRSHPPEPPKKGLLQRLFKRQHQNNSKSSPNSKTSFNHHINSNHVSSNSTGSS

human GRK2S670A = target: T4, human GRK2S670A (Homo sapiens, UniProt P25098, S670A); experiment: Primary DSF (differential scanning fluorimetry) inhibitor screen, GRK2; format: binding; conditions: 10 μM compound
T4 construct: when using full-length kinases as the receptor[37] instead of isolated kinase domains; made in house
T4 sequence (P25098 1-689 S670A): T2 sequence (P25098 1-689 S670A)

protein kinase A (PKA) = target: T5, protein kinase A (PKA) (Mus musculus, UniProt P05132); experiment: DSF retest (confirmation), PKA; format: binding; conditions: for PKA Tm: 0.2 mg mL^–1 kinase; for PKA ΔTm: relative to intrinsic melting point of the kinase
T5 construct: His tag (inferred from pET15b vector and Ni-NTA column) (N); host or cells: E. coli Rosetta(DE3)pLysS
Experimental: Fourteen compounds (Figure 1a–c), including all GRK2 hits except staurosporine, and the most stabilizing pyrrolopyrimidine-containing compounds were obtained from GSK and retested using DSF on GRKs representing each vertebrate subfamily (GRK1, 2, and 5) (Table 1). […] The ability of these compounds to shift the Tm of the related AGC family kinase member protein kinase A (PKA) was also assessed (Table 1). In no case was ΔTm greater for PKA than for one of the tested GRKs. […]. There was no correlation for GRK1 (Figure 2c).
DSF was conducted using a ThermoFluor plate reader (Johnson & Johnson) in a buffer containing 20 mM HEPES, pH 7.0, 5 mM MgCl2, 2 mM DTT, and 1 mM CHAPS with 0.2 mg mL^–1 final concentration of GRK or PKA and 100 μM 1-anilinonaphthalene-8-sulfonic acid.[14]

GRK2 [3] = target: T6, GRK2 (Bos taurus, UniProt P21146, S670A); experiment: In vitro phosphorylation assay (tubulin, 5 μM ATP), GRK2; format: biochemical, bovine; conditions: for IC50: read-out: GRK2 log IC50 (converted)
T6 construct: made in house
T6 sequence (P21146 1-689 S670A): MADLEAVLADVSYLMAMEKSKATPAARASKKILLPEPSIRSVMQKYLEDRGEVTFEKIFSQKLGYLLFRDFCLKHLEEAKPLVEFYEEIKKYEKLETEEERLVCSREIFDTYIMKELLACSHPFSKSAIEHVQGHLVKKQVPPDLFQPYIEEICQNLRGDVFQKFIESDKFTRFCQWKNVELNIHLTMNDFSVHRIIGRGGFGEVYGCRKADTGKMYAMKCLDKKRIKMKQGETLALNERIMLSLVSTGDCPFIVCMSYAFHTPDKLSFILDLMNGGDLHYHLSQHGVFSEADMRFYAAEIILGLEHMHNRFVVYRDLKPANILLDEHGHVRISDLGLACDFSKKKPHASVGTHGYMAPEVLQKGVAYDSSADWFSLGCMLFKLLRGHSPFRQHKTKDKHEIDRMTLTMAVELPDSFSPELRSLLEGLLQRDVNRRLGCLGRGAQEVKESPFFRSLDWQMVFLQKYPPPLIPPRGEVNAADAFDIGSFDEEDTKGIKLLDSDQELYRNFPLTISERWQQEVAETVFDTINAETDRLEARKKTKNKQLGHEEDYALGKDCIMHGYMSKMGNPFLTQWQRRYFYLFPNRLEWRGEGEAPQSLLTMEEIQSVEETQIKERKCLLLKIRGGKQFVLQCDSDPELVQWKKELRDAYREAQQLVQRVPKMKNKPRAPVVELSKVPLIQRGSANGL

bovine GRK5 = target: T7, bovine GRK5 (Bos taurus, UniProt P43249); experiment: Primary DSF inhibitor screen, GRK5; format: binding; conditions: 10 μM compound; for ΔTm at 10 µM: read-out: ΔTm, primary screen, GRK5; for rank in the primary screen, GRK5: rank ordering of compounds in primary DSF screen
T7 construct: when using full-length kinases as the receptor[37] instead of isolated kinase domains; made in house
T7 sequence (P43249 whole entry, the tested form may be a part): as the sequence (P43249 whole entry, the tested form may be a part) above

GRK1 [4] = target: T8, GRK1 (Bos taurus, UniProt P28327); experiment: In vitro phosphorylation assay (tubulin, 5 μM ATP), GRK1; format: biochemical, bovine; conditions: for IC50: read-out: GRK1 log IC50 (converted)
T8 construct: Bovine GRK1_1–535, bovine and human GRK2S670A; made in house
T8 sequence (P28327 1-535): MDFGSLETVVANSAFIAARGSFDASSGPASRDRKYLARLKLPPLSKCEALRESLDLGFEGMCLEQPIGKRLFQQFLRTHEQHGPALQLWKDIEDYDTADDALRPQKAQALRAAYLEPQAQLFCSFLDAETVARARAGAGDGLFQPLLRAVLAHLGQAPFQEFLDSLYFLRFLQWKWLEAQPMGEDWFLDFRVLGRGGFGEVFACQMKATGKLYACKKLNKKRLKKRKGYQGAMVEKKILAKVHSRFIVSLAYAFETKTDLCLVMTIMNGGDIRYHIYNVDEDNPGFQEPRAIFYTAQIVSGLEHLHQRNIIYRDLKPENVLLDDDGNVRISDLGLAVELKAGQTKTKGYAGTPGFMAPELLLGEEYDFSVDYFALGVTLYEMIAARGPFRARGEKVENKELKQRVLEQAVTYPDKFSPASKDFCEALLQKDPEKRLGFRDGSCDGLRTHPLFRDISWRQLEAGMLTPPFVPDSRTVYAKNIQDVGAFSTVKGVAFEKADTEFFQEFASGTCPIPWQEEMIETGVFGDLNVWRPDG

GRK1, 2, and 5 and PKA = experiment: Ssel selectivity score calculated from inhibition of GRK1, 2, 5 and PKA; conditions: selectivity score from inhibition of GRK1, 2, 5 and PKA; <0.5 selective
GRK5 [5] = target: T3, GRK5; experiment: In vitro phosphorylation assay (tubulin, 5 μM ATP), GRK5; format: biochemical, bovine
GRK1 [6] = target: T8, GRK1; experiment: DSF retest (confirmation), GRK1; format: binding, bovine; conditions: for GRK1 Tm: 0.2 mg mL^–1 kinase; for GRK1 ΔTm: relative to intrinsic melting point of the kinase
224 kinases = tested on: 224 kinases; parameters: method as in ChEMBL database; conditions: ref ChEMBL database; cited from earlier work
[7] = logarithm of IC50 (−3.3 corresponds to 0.5 mM, footnote c), 438 nM PKA, 100 μM ATP, CREBtide, read-out: PKA log IC50 (converted)
[8] = 2 μM kinase, relative to DMSO control

| IC50 (PKA; [7]) [µM] | GRK2 Tm (GRK2 [1]) [°C] | GRK2 ΔTm (GRK2 [1]) [°C] | GRK5 Tm (GRK5 [2]) [°C] | GRK5 ΔTm (GRK5 [2]) [°C] | PKA Tm (protein kinase A (PKA)) [°C] | PKA ΔTm (protein kinase A (PKA)) [°C] | IC50 (GRK2 [3]) [µM] | ΔTm at 10 µM (bovine GRK5; [8]) [°C] | IC50 (GRK1 [4]) [µM] | GRK5 fold (increase in potency relative to paroxetine) (GRK5 [5]) [fold] | GRK1 Tm (GRK1 [6]) [°C] | GRK1 ΔTm (GRK1 [6]) [°C] | rank in the primary screen, GRK5 (bovine GRK5) | Compound | Ssel (GRK1, 2, and 5 and PKA) | also measured |
| --- | --- | --- | --- | --- | --- | --- | --- | --- | --- | --- | --- | --- | --- | --- | --- | --- |
| 63.1 | 48.3 | 10.7 | 28.1 | 1.3 | 49.5 | 4.1 | 3.16 | 3.55 | > 1000 | 1.6 | 23.4 | 3.5 | – | CC1=C(C(=O)Nc2ccc3[nH]ncc3c2)C(c2ccc(Cl)c(Cl)c2)CC(=O)N1 (stereo not shown) [GSK299115A] | 0.360 | IC50 (PKA; read-out: IC50 against PKA): < 100 µM; ΔTm, primary screen, GRK2 (human GRK2S670A; [8]): 4.8 °C; ΔTm at 10 µM (human GRK2S670A; 2 μM kinase, relative to DMSO control, read-out: ΔTm, primary screen, GRK2): 4.83 °C; rank in the primary screen, GRK2 (human GRK2S670A; rank ordering of compounds in primary DSF screen): 4; GRK2 fold (increase in potency relative to paroxetine) (GRK2 [3]; relative to paroxetine): 0.40 fold |
| > 501 | 40.4 | 2.8 | 28.7 | 2.0 | 47.7 | 2.3 | > 1000 | 6.71 | 1000 | 5.0 | 24.8 | 4.9 | 15 | CC(C)COC(=O)c1ccc2c(c1)/C(=C/Nc1ccc(S(N)(=O)=O)cc1)C(=O)N2 [GW416981X] | 0.330 | inhibition pattern in kinase cross-screening, in words (224 kinases): strong inhibition of many of the 221 kinases evaluated; GRK1 fold (increase in potency relative to paroxetine) (GRK1 [4]; relative to paroxetine): 0 fold; IC50 (GRK5 [5]; read-out: GRK5 log IC50 (converted)): 25.1 µM |
| > 501 | – | – | 33.0 | 6.3 | 48.5 | 3.1 | – | 9.25 | 0.126 | – | 26.3 | 6.4 | 4 | COc1cc2c(cc1Nc1nc(Nc3ccsc3C(N)=O)c3cc[nH]c3n1)N(C(=O)CN(C)C)CCC2(C)C [GSK2163632A] | 0.199 | ΔTm, primary screen, GRK5 (bovine GRK5; [8]): 9.2 °C |

| Compound | IC50 (PKA; [7]) [µM] | GRK2 Tm (GRK2 [1]) [°C] | GRK2 ΔTm (GRK2 [1]) [°C] | GRK5 Tm (GRK5 [2]) [°C] | GRK5 ΔTm (GRK5 [2]) [°C] | PKA Tm (protein kinase A (PKA)) [°C] | PKA ΔTm (protein kinase A (PKA)) [°C] | IC50 (GRK2 [3]) [µM] | ΔTm at 10 µM (bovine GRK5; [8]) [°C] | IC50 (GRK1 [4]) [µM] | GRK5 fold (increase in potency relative to paroxetine) (GRK5 [5]) [fold] | GRK1 Tm (GRK1 [6]) [°C] | GRK1 ΔTm (GRK1 [6]) [°C] | rank in the primary screen, GRK5 (bovine GRK5) | Ssel (GRK1, 2, and 5 and PKA) | also measured |
| --- | --- | --- | --- | --- | --- | --- | --- | --- | --- | --- | --- | --- | --- | --- | --- | --- |
| CC1=C(C(=O)Nc2ccc3[nH]ncc3c2)C(c2ccc(F)cc2)NC(=O)N1 (stereo not shown) [GSK180736A] | – | – | – | – | – | 49.2 | 3.8 | – | – | > 1000 | – | 25.3 | 5.4 | – | 0.022 | – |

Source: publication PMC4301037, “Identification and Structure–Function Analysis of Subfamily Selective G Protein-Coupled Receptor Kinase Inhibitors” (ACS Chemical Biology, 2014)
